Laboratory results reported in US4505893A, “Purified plasminogen activator, process for its production and thrombolytic composition containing it” (Asahi Kasei Kogyo Kabushiki Kaisha, priority 1982, dated 1985).
Square brackets hold non-standard residues; d marks the D form. Peptide text beside a SMILES is read from it. * marks the point of attachment. Sta = CC(C)C[C@H](N)[C@@H](O)CC(=O)O; Isovaleryl = CC(C)CC(=O)*

Experiments:
urokinase = urokinase (Homo sapiens, UniProt P00749); assay: biochemical
[1] = molecular target: T1, substance of this invention (plasminogen activator) (Homo sapiens, UniProt P00750); assay: biochemical
T1 construct: endogenous in cells

[2] = Hydrolysis activity on various organic substrates; assay type: biochemical; settings: 37° C. 15 minutes, 1 μM aminomethylcoumarin = 100%, substance 100 U/ml, urokinase 120 IU/ml
fibrin = assay: Affinity to fibrin (incorporation into formed fibrin); assay type: binding; settings: 500 U/ml (urokinase 500 IU/ml); plasminogen-free fibrinogen + thrombin, 1 hour at room temperature; extracted with 2M ammonium thiocyanate
plasminogen = assay: Enhancement of activity with fibrin (plasminogen activation, Boc-Val-Leu-Lys-MCA); assay type: biochemical; settings: 5 U/ml (urokinase 5 IU/ml), 25° C. 1 hour, 10 μM aminomethylcoumarin = 100%

T1 sequence (P00750 36-562): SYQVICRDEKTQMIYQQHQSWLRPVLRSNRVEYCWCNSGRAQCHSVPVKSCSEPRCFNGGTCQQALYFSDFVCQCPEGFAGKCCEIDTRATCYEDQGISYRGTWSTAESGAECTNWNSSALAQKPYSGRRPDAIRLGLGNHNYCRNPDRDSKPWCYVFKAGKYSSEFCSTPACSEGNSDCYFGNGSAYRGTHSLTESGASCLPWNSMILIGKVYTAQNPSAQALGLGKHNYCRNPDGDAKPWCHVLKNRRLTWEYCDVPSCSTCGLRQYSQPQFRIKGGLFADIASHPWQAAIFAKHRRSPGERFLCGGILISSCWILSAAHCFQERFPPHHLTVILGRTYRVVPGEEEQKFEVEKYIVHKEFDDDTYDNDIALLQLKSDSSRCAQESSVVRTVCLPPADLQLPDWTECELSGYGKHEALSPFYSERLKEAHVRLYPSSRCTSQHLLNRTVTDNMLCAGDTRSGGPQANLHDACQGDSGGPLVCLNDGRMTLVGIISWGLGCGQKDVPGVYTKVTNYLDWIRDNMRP

## CC(C)C[C@H](NC(=O)[C@@H](NC(=O)N[C@@H](Cc1ccccc1)C(=O)O)[C@@H]1CCN=C(N)N1)C(=O)N[C@H](C=O)Cc1ccccc1 [Chymostatin]
urokinase
  IC50: > 160 µM
[1]
  IC50: > 160 µM

## CCOC(=O)c1ccc(OC(=O)CCCCCNC(=N)N)cc1 [FOY]
urokinase
  IC50: 0.146 µM
[1]
  IC50: 12.8 µM

## CC(=O)N[C@@H](CC(C)C)C(=O)N[C@@H](CC(C)C)C(=O)N[C@H](C=O)CCCNC(=N)N [Leupeptin]
urokinase
  IC50: 80.7 µM
[1]
  IC50: 47.5 µM

## CC(C)CC(=O)N[C@H](C(=O)N[C@H](C(=O)N[C@@H](CC(C)C)[C@@H](O)CC(=O)N[C@@H](C)C(=O)N[C@@H](CC(C)C)[C@@H](O)CC(=O)O)C(C)C)C(C)C [Pepstatin] (Isovaleryl-VV[Sta]A[Sta]-OH)
urokinase
  IC50: > 100 µM
[1]
  IC50: > 100 µM

## urokinase
[2]; substrate Boc-Glu-Lys-Lys-MCA 0.1 mM
  Hydrolysis Activity (%): 2.82%
[2]; substrate Boc-Ileu-Glu-Gly-Arg-MCA 0.1 mM
  Hydrolysis Activity (%): 3.30%
[2]; substrate Boc-Phe-Ser-Arg-MCA 0.1 mM
  Hydrolysis Activity (%): 48.9%
[2]; substrate Glt-Gly-Arg-MCA 0.1 mM
  Hydrolysis Activity (%): 314%
[2]; substrate Pro-Phe-Arg-MCA 0.1 mM
  Hydrolysis Activity (%): 3.89%
[2]; substrate Z--Phe-Arg-MCA 0.1 mM
  Hydrolysis Activity (%): 2.15%
fibrin
  proportion of the substance incorporated in the fibrin: not incorporated in the fibrin at all
plasminogen; fibrinogen added
  Hydrolysis Activity (%): 5.9%
plasminogen; fibrinogen not added
  Hydrolysis Activity (%): 28%
